Where a name gives a salt, the structure may show the parent alone. Read-outs that look alike come from different tables or passages of the source.
Assays:
Porcine DPP-IV = target: T1, Porcine DPP-IV (Sus scrofa, UniProt P22411); assay: Assay of DPP-IV enzyme inhibitory activity (spectrophotometric, Gly-Pro-pNA cleavage); assay type: biochemical
T1 construct: purchased Sigma-Aldrich Germany

[1] = In-vitro free radical scavenging activity using DPPH free radical; details: 30° C., 30 minutes, 515 nm
Description: Free Radical Scavenging Activity:
To determine the in-vitro free radical scavenging activity of compounds of general formula-I on 2,2,-diphenyl-1-picrylhydrazyl (DPPH)radical (Ref: W. Brand-Williams, M. E. Cuvelier, C. Berset “Use of a free radical method to evaluate antioxidant activity”, Lebensm.- Wiss.u.Technol.,1995,28,Nr.1:25-30).
To evaluate the free radical scavenging activity of compounds they are allowed to react with stable radical DPPH*. In its radical form, DPPH* absorbed at the characteristic wave length of 515 nm, but upon reduction by an antioxidant or radical scavenger (AH), the absorption disappears.
10^−4M solution of DPPH* was prepared in methanol.
Various concentrations (10 mM, 1 mM, 0.5 mM, 0.25 mM and 0.125 mM) of drug solutions were prepared in methanol.
900 μl of DPPH radical solution was added to an eppendorf tube. To it was added 100 μl of methanol.
900 μl of DPPH radical solution was added to an eppendorf tube. To it was added 100 μl of various concentrations of drug solutions in methanol.
The absorbance of control and test samples was recorded after incubation at 30° C. for 30 minutes, at 515 nm taking methanol as blank.
The percent antioxidant activity was calculated according to the formula:
% Antioxidant activity=100−[O.D of test sample/O.D of control*100]

[2] = Porcine DPP-IV, Gly-Pro-pNA substrate, 30° C., mean ± SD of three experiments except compound Nos. 133 & 139, read-out: IC50 (μM) Mean ± SD, inhibitory activity on DPP-IV enzyme activity
[3] = read-out: dipeptidyl peptidase-IV inhibitory IC50's in the range

T1 sequence (P22411 whole entry): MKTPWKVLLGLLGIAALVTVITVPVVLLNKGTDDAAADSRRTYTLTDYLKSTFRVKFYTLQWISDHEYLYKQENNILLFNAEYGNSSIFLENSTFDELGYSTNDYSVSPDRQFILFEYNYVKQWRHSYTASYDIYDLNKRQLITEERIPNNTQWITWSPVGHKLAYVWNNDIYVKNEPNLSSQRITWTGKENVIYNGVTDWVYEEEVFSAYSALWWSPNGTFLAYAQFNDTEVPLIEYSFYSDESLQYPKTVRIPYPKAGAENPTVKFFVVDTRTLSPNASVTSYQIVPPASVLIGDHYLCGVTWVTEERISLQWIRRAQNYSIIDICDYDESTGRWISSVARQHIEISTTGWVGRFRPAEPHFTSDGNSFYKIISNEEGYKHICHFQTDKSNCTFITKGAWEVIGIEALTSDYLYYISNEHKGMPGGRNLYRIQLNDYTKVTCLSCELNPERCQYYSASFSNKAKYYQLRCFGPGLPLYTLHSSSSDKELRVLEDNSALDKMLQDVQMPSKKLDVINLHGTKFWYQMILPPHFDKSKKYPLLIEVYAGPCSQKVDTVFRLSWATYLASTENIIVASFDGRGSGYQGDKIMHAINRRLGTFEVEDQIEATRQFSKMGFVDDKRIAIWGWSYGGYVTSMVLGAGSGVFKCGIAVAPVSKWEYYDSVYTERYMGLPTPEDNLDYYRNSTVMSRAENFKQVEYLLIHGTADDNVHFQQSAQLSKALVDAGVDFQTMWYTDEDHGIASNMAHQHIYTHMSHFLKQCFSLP

Row | IC50 (Porcine DPP-IV; [2]) | IC50 (Porcine DPP-IV; [3]) | SMILES | % Activity (antioxidant, DPPH) ([1]; Concentration 12.5 μM) | % Activity (antioxidant, DPPH) ([1]; Concentration 25 μM) | % Activity (antioxidant, DPPH) ([1]; Concentration 50 μM) | % Activity (antioxidant, DPPH) ([1]; Concentration 100 μM) | % Activity (antioxidant, DPPH) ([1]; Concentration 12.5 μM, 12.5 µM) | % Activity (antioxidant, DPPH) ([1]; Concentration 25 μM, 25 µM) | % Activity (antioxidant, DPPH) ([1]; Concentration 50 μM, 50 µM) | % Activity (antioxidant, DPPH) ([1]; Concentration 100 μM, 100 µM)
1 | 1.03 ± 0.07 µM |  | CCNN(CC(=O)N1CSCC1C#N)C1CCC(NS(C)(=O)=O)CC1 (stereo not drawn) [Compound No. 97, 3-[1-oxo-2-[1-(1-(methanesulphonyl)aminocyclohexan-4-yl)-2-ethyl]hydrazino]ethyl-4-cyanothiazolidine] | 18.06% | 38.30% | 66.99% | 91.67% |  |  |  | 
2 | 0.2 ± 0.04 µM | 0.088 to 0.25 µM | N#Cc1ccc(NC(=O)CN2CCC(N(N)CC(=O)N3CSCC3C#N)CC2)cc1 (stereo not drawn) [Compound No. 99, 3-[1-oxo-2-[1-(1-(2-oxo-2-(4-cyanophenyl)aminoethyl)piperidin-4-yl)]hydrazino]ethyl-4-cyanothiazolidine bis-trifluoroacetate] | 15.12% | 24.87% | 39.13% | 53.33% |  |  |  | 
3 | 0.488 ± 0.017 µM |  | CCNN(CC(=O)N1CSCC1C#N)C1CCN(CC(=O)Nc2ccc(Cl)cn2)CC1 (stereo not drawn) [Compound No. 101, 3-[1-oxo-2-[1-(1-(2-oxo-2-(5-chloropyridin-2-yl)aminoethyl)piperidin-4-yl)]-2 ethylhydrazino]ethyl-4-cyanothiazolidine tris-hydrochloride] | 20.41% | 31.00% | 32.19% | 61.15% |  |  |  | 
4 | 0.308 ± 0.06 µM |  | N#CC1CSCN1C(=O)CN(N)C1CCN(CC(=O)Nc2ccc(C(F)(F)F)cc2)CC1 (stereo not drawn) [Compound No. 102, 3-[1-oxo-2-[-1-(1-(2-oxo-2(4-trifluorophenyl)aminoethyl)piperidin-4-yl)]hydrazino]ethyl-4-cyanothiazolidine bis-trifluoroacetate] | 20.90% | 29.56% | 34.26% | 50.15% |  |  |  | 
5 | 0.523 ± 0.017 µM |  | N#CC1CSCN1C(=O)CN(N)C1CCN(CC(=O)NC23CC4CC(CC(C4)C2)C3)CC1 (stereo not drawn) [Compound No. 103, 3-[1-oxo-2-[1-(1-(2-oxo-2(-adamant-1-yl)aminoethyl)piperidin-4-yl)]hydrazino]ethyl-4-cyanothiazolidine bis-trifluoroacetate] | 20.41% | 40.80% | 44.09% | 54.81% |  |  |  | 
6 | 0.143 ± 0.02 µM |  | N#CC1CSCN1C(=O)CN(N)C1CCN(CC(=O)Nc2ncccn2)CC1 (stereo not drawn) [Compound No. 106, 3 [2-oxo-2-[1-(1-(2-oxo-2(pyrimidin-2-yl)aminoethyl)piperidin-4-yl)]hydrazino]ethyl-4-cyanothiazolidine tris-trifluoroacetate] | 24.86% | 42.52% | 70.39% | 72.86% |  |  |  | 
7 | 0.236 ± 0.025 µM | 0.088 to 0.25 µM | N#CC1CSCN1C(=O)CN(N)C1CCN(CC(=O)NC2CC2)CC1 (stereo not drawn) [Compound No. 108, 3[1-oxo-2-[1-(1-(2-oxo-2-(cyclopropyl)aminoethyl)piperidin-4-yl)]hydrazino]ethyl-4-cyanothiazolidine bis-trifluoroacetate] | 20.19% | 26.25% | 34.71% | 52.72% |  |  |  | 
8 | 0.397 ± 0.02 µM |  | CS(=O)(=O)NC1CCC(N(N)CC(=O)N2CSCC2C#N)CC1 (stereo not drawn) [Compound No. 114, 3-[1-oxo-2-(1-(1-methanesulphonylamino-4-cyclohexyl)hydrazino)]ethyl-4-cyanothiazolidine hydrochloride] | 19.23% | 39.37% | 78.16% | 92.76% |  |  |  | 
9 | 0.226 ± 0.005 µM |  | N#CC1CSCN1C(=O)CN(N)C1CCN(CC(=O)Nc2ncc(Br)s2)CC1 (stereo not drawn) [compound 117, 3-[1-oxo-2-(1-(1-(2-oxo-2-(5-bromothiazol-2-yl)aminoethyl)piperidine-4-yl))hydrazino]ethyl-4-cyanothiazolidine, tris-trifluoroacetate] |  |  |  | 53.44% |  |  |  | 
10 | 0.185 ± 0.01 µM |  | Cc1nc(NC(=O)CN2CCC(N(N)CC(=O)N3CSCC3C#N)CC2)sc1C (stereo not drawn) [compound 119, 3-[1-oxo-2-(1-(1-(2-oxo-2-(4,5-dimethylthiazole-2-yl)aminoethyl)piperidin-4-yl)) hydrazino]ethyl-4-cyanothiazolidine, tris-trifluoroacetate] |  |  |  | 54.93% |  |  |  | 
11 | 0.09 ± 0.02 µM |  | N#Cc1ccc(NC(=O)CN2CCC(N(N)CC(=O)N3CSCC3C#N)CC2)nc1 (stereo not drawn) [compound 120, 3-[1-oxo-2-(1-(1-(2-oxo-2(5-cyanopyridin-2-yl)aminoethyl)piperidin-4-yl))hydrazino]ethyl-4-cyanothiazolidine, tris-trifluoroacetate] |  |  |  | 55.03% |  |  |  | 
12 | 0.24 ± 0.025 µM |  | N#CC1CSCN1C(=O)CN(N)C1CCN(CC(=O)Nc2ccc3c(c2)OCO3)CC1 (stereo not drawn) [compound 130, 3-[1-oxo-2-(1-(1-(2-oxo-2-(3,4-methelenedioxyphenyl)aminoethyl)piperidine-4-yl))hydrazino]ethyl-4-cyanothiazolidine, bis-trifluoroacetate] |  |  |  | 56.37% |  |  |  | 
13 | 0.0985 ± 0.012 µM |  | N#CC1CSCN1C(=O)CN(N)C1CCN(CC(=O)Nc2ccc(S(N)(=O)=O)cc2)CC1 (stereo not drawn) [compound 131, 3-[1-oxo-2-(1-(1-(2-oxo-2-(4-aminosulphonylphenyl)aminoethyl)piperidin-4-yl))hydrazino]ethyl-4-cyanothiazolidine, bis-trifluoroacetate] |  |  |  | 57.73% |  |  |  | 

Row | SMILES | IC50 (Porcine DPP-IV; [2]) | IC50 (Porcine DPP-IV; [3]) | % Activity (antioxidant, DPPH) ([1]; Concentration 12.5 μM) | % Activity (antioxidant, DPPH) ([1]; Concentration 25 μM) | % Activity (antioxidant, DPPH) ([1]; Concentration 50 μM) | % Activity (antioxidant, DPPH) ([1]; Concentration 100 μM) | % Activity (antioxidant, DPPH) ([1]; Concentration 12.5 μM, 12.5 µM) | % Activity (antioxidant, DPPH) ([1]; Concentration 25 μM, 25 µM) | % Activity (antioxidant, DPPH) ([1]; Concentration 50 μM, 50 µM) | % Activity (antioxidant, DPPH) ([1]; Concentration 100 μM, 100 µM)
14 | CC(C)(C)C(=O)NC1CCC(N(N)CC(=O)N2CSCC2C#N)CC1.O=C(O)C(F)(F)F (stereo not drawn) [Compound No. 98, 3-[1-oxo-2-[(1-(trimethylacetamido)cyclohexan-4-yl)]hydrazino]ethyl-4-cyanothiazolidine trifluoroacetate] | 0.71 ± 0.01 µM |  |  |  |  |  | 21.99% | 40.77% | 59.21% | 73.35%

Source: patent US20040106802A1, “Novel compounds and therapeutic uses thereof” (TORRENT PHARMACEUTICALS LTD., priority 2002, published 2004)
